Reference: patent US20210315893A1 (Galapagos NV, priority 2017, published 2021)

How the values were obtained:
[1] = molecular target: T1, human GPCR sphingosine 1-phosphate receptor 2 (Homo sapiens, UniProt O95136); assay: S1PR2 antagonist Ca2+ flux assay; assay type: cell-based; conditions: antagonist mode, CHO-S1PR2 cells, S1P at EC80, Ca2+ fluorescence; read-out: S1P2 EC50 (nM), S1P2 antagonist EC50
T1 construct: host or cells: CHO
Method in brief: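 Antagonist mode: 15 min after compound addition, S1P (EC80) stimulates Fluo8-loaded, 1 h-starved CHO-S1PR2 cells, Ca2+ read over 3 min; a prior 3-min read checks compound agonism. EC50 from peak/baseline fluorescence ratio, normalised versus vehicle and S1P EC50 (antagonist) or EC100 (agonist).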

[2] = molecular target: T2, human GPCR sphingosine 1-phosphate receptor 1 (Homo sapiens, UniProt P21453); assay: S1PR1 selectivity Ca2+ flux assay (antagonist readout); assay type: cell-based; conditions: antagonist readout, CHO cells overexpressing human S1PR1 and Gq, S1P at EC80 (6 nM); read-out: S1P1 EC50 (nM), S1P1 antagonist EC50
T2 construct: host or cells: CHO
Method in brief: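 Antagonist mode: S1P challenge follows 15 min compound preincubation at 37 °C. Cells are CHO stably expressing human S1PR1, serum-starved 1 h (0.1% FAF BSA), loaded with Fluo 8. Peak-over-baseline fluorescence ratio is normalized to positive/negative controls; IC50 from logistic curve fit.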

[3] = molecular target: T3, human GPCR sphingosine 1-phosphate receptor 5 (Homo sapiens, UniProt Q9H228); assay: S1PR5 selectivity Ca2+ flux assay (antagonist readout); assay type: cell-based; conditions: CHO cells overexpressing human S1PR5 and Gq, agonist at EC80 (20 nM), read-out: S1P5 EC50 (nM), S1P5 antagonist EC50
T3 construct: host or cells: CHO
Method in brief: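 Antagonist readout: after 15 min compound preincubation at 37° C, human S1PR5/Gq CHO cells loaded with Fluo 8 dye received an EC80 challenge of S1PR5-specific agonist, and fluorescence was recorded for 3 min. Maximal-over-background ratios, normalized as % inhibition, gave IC50 by logistic fit.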

[4] = molecular target: T4, S1PR2 (Homo sapiens, UniProt O95136); assay: S1PR2 binding assay (competition with radioactively labeled S1P, SpA); conditions: membranes from stable cell line over expressing S1PR2, SpA beads; read-out: S1P2 EC50 (nM), S1PR2 binding EC50
T4 construct: expressed in transfected cells
Method in brief: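 Scintillation proximity read-out after 2 h room-temperature incubation of compound, [3H]S1P and S1PR2-overexpressing cell membranes on WGA-coated beads. Buffer: 20 mM Tris pH 7.5, 100 mM NaCl, 10 mM MgCl2, 1 mM Na3VO4, 0.4% fatty-acid-free BSA; plates counted immediately after centrifugation.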

[5] = test system: HFL-1 cells; assay: IL-8 production assay (S1P induced IL-8); assay type: cell-based; conditions: Homo sapiens, HFL1; S1P (1 μM) induced IL-8 in HFL-1 cells, starvation medium without HSA; read-out: IL8 EC50
Method in brief: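 HFL-1 fibroblasts in low-serum medium were pretreated 1 h with a 10-point 1/3 series of compound starting at 30 μM (0.3% DMSO).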

[6] = test system: HFL-1 cells; assay: IL8 assay in the presence of Human Serum Albumin; conditions: HFL1, read-out: HSA IL8 EC50

T2 sequence (P21453 whole entry): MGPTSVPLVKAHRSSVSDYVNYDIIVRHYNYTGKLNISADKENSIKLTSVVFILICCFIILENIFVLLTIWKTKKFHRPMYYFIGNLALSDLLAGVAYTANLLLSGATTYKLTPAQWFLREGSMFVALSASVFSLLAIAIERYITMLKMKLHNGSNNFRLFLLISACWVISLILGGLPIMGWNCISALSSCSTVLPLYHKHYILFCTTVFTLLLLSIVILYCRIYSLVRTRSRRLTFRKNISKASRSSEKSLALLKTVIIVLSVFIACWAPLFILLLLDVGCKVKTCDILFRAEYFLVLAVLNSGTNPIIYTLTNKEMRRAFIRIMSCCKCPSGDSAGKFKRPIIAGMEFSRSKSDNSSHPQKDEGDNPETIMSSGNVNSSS
T3 sequence (Q9H228 whole entry): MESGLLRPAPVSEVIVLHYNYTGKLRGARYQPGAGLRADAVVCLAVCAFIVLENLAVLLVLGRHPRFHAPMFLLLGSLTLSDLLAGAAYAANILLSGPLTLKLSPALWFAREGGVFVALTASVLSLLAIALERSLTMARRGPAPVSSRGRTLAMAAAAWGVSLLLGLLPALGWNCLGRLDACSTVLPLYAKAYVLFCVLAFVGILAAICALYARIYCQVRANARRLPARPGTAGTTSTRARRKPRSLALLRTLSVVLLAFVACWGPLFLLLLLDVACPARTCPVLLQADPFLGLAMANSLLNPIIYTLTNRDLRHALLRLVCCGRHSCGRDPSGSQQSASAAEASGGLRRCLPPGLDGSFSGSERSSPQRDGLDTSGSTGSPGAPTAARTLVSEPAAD
T1 sequence (O95136 whole entry): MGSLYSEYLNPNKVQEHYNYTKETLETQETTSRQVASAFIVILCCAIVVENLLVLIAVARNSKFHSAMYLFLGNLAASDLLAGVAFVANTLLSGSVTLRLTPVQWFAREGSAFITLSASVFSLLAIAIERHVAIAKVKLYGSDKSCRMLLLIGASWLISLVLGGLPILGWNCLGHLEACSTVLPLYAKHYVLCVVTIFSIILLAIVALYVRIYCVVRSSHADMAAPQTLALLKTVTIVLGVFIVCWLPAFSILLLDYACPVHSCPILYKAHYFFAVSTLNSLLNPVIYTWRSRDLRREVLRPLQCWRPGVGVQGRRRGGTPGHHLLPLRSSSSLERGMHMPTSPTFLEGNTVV
T4 sequence (O95136 whole entry): as above

SMILES | EC50 [1] | EC50 [2] | EC50 [3] | EC50 [4] | EC50 [5] | EC50 [6]
COc1cc2[nH]c(Cc3nn(CC(=O)O)c(=O)c4c3CCCC4)nc2cc1Cl [Compound 120, 2-[4-[(5-chloro-6-methoxy-1H-benzimidazol-2-yl)methyl]-1-oxo-5,6,7,8-tetrahydrophthalazin-2-yl]acetic acid] | 57 nM | ≥ 19800 nM | 19800 nM | 392 nM | 96.7 nM | 822 nM
CC(C(=O)O)n1nc(Cc2nc3cc(OCC4CC4)c(Cl)cc3[nH]2)c2ccccc2c1=O (stereo not drawn) [Compound 122, 2-[4-(6-Chloro-5-cyclopropylmethoxy-1H-benzoimidazol-2-ylmethyl)-1-oxo-1H-phthalazin-2-yl]-propionic acid] | 13.6 nM | 3720 nM | 19800 nM | 342 nM | 2.29 nM | 13.3 nM
O=C(O)Cn1cc(Cc2nc3cc(Cl)c(OCC(F)F)cc3[nH]2)c2ccccc2c1=O [Compound 125, {4-[5-Chloro-6-(2,2-difluoro-ethoxy)-1H-benzoimidazol-2-ylmethyl]-1-oxo-1H-isoquinolin-2-yl}-acetic acid] | 24.4 nM | ≥ 19800 nM | 19800 nM | 200 nM | 66.1 nM | 1680 nM
O=C(O)Cn1nc(Cc2nc3cc(OCC(F)F)c(Cl)cc3[nH]2)c2c(F)ccc(F)c2c1=O [Compound 126, 2-[4-[[6-chloro-5-(2,2-difluoroethoxy)-1H-benzimidazol-2-yl]methyl]-5,8-difluoro-1-oxo-phthalazin-2-yl]acetic acid] | 19.1 nM | ≥ 19800 nM | 19800 nM | 93.5 nM | 5.97 nM | 113 nM

Other lines, results leading:

EC50 [1] | EC50 [2] | EC50 [3] | EC50 [4] | EC50 [5] | EC50 [6] | SMILES
8.27 nM | 3500 nM | 19800 nM | 479 nM | 13.6 nM | 61.7 nM | CCOc1cc2nc(Cc3nn(CC(=O)O)c(=O)c4ccccc34)[nH]c2cc1C(F)(F)F [Compound 127, 2-[4-[[5-ethoxy-6-(trifluoromethyl)-1H-benzimidazol-2-yl]methyl]-1-oxo-phthalazin-2-yl]acetic acid]
28.3 nM | ≥ 19800 nM | 19800 nM | 1970 nM | 30.8 nM | 701 nM | CCOc1cc2[nH]n(Cc3nn(CC(=O)O)c(=O)c4ccccc34)c(=O)c2cc1Cl [Compound 128, 2-[4-[(5-chloro-6-ethoxy-3-oxo-1H-indazol-2-yl)methyl]-1-oxo-phthalazin-2-yl]acetic acid]
10 nM | 12000 nM | 19800 nM | 745 nM | 10.1 nM | 163 nM | O=C(O)Cn1nc(Cn2[nH]c3cc(OCC4CC4)c(Cl)cc3c2=O)c2ccccc2c1=O [Compound 134, 2-[4-[[5-chloro-6-(cyclopropylmethoxy)-3-oxo-1H-indazol-2-yl]methyl]-1-oxo-phthalazin-2-yl]acetic acid]
37.5 nM | ≥ 19800 nM | 19800 nM | 178 nM | 24.3 nM | 3460 nM | N#Cc1cc2nn(Cc3nn(CC(=O)O)c(=O)c4ccccc34)cc2cc1OCC1CC1 [Compound 135, 2-[4-[[6-cyano-5-(cyclopropylmethoxy)indazol-2-yl]methyl]-1-oxo-phthalazin-2-yl]acetic acid]
191 nM | ≥ 19800 nM | 19800 nM | 226 nM | 511 nM | 3400 nM | CC(C)(C)NC(=O)Cn1nc(Cn2cc3cc(OCC4CC4)c(Cl)cc3n2)c2ccccc2c1=O [Compound 144, N-tert-butyl-2-[4-[[6-chloro-5-(cyclopropylmethoxy)indazol-2-yl]methyl]-1-oxo-phthalazin-2-yl]acetamide]
